Test results taken from patent publication US3969521A, “Pharmaceutical compositions containing tetrahydroalstonine and method for treating circulation disorders” (Science Union et Cie, Societe Francaise de Recherche Medical, priority 1974, dated 1976).
“Also recorded” adds a separate entry of the source.

Assays:
central nervous system = assay: Effects on the central nervous system; assay type: in vivo
[1] = tested on: analgetic effect of Morphine; assay: Analgetic effect of Morphine; settings: in vivo
[2] = tested on: recovery of learned memories; assay: Recovery of learned memories after electroshock (aquatic maze crossing); assay type: in vivo, rat; settings: for effect on the recovery of learned memory: rat, in vivo
Text: Effects of tetrahydroalstonine on the recovery of learned memories on rats.
Tetrahydroalstonine has been tested on lots of rats in order to determine how fast it allows the recovery of learned memories after supramaximal electroshock in comparision with Vincamine and Papaverine. These last compounds are known to be active on the circulation namely as vasodilating agents.
In this test, as described by C. Giurgea (J. Pharmacol. (Paris) 3 17 (1972)), the rats are submitted to a submaximal electroshock which causes a spatio-temporal desorientation. This syndrom is evidenced by the difficulties the tested animals encountered for crossing over a maze filled with cold water without any error, after they have been submitted to the electroshock. The rats have been previously trained to swimm through this maze and the training has been renewed four times for 2 days.
The electric shock was delivered by means of a Neurovar apparatus (ALVAR Electronics) the third day. 20 Minutes after the electro shock, each lot of rats is tested and the time for crossing over the maze is determined. Immediately after, the rats received the compound to be tested by intra oesophageal tubing. Each lot is then experienced four times, 1, 2, 3, and 4 hours after the electroshock.
The score of performances of each individual is recorded and every error during the crossing over noticed.
The compounds to be tested (papaverine, vincamine and tetrahydroalstonine) are given to the animals, suspended in an aqueous solution of carboxymethylcellulose and sorbitan monooleate.
Papaverine and vincamine were administered at dosis ranging from 1 to 20 mg/kg. Tetrahydroalstonine was administered at a dosis of 0.6 mg/kg, 6 mg/kg and 60 mg/kg.
A lot of rats received only the aqueous solvent under the same volume (0.5 ml/100 g animal) as controls.
Therein are reported for each lot of rats the number of errors and the average time for crossing over the maze during the 5 tests performed after the animals have been subjected to the electroshock.
The treatment has been given 20 mn after the electroshock, immediately
after the first crossing over

[3] = 10 mg/kg P.O., 20 minutes (before treatment)
[4] = 10 mg/kg P.O., 20 minutes after electroshock (before treatment)
[5] = 20 mg/kg P.O., 20 minutes (before treatment)
[6] = 20 mg/kg P.O., 20 minutes after electroshock (before treatment)

COC(=O)C1=CO[C@@H](C)[C@H]2CN3CCc4c([nH]c5ccccc45)[C@@H]3C[C@H]12 [Raubasine, reference compound]
effect on the central nervous system (central nervous system; 50 to 100 mg/kg perorally): merely a sedative | effect on the central nervous system (central nervous system; dosage not stated): merely endowed with sedative properties | effect on the analgetic effect of Morphine [1]: does not exert such effect; also recorded: does not increase the analgetic effects of morphine

COc1ccc(Cc2nccc3cc(OC)c(OC)cc23)cc1OC [Papaverine]
time after which improvement in performance appeared statistically significant ([2]; 10 mg/kg): 240 mn | a = variation of average number of errors as regard as the controls [2, 3]: + | E = average number of errors [2, 4]: 14,3 | T = average time for crossing over [2, 4]: 154,2 seconds | E = average number of errors ([2]; 10 mg/kg P.O., 60 minutes): 7,3 | T = average time for crossing over ([2]; 10 mg/kg P.O., 60 minutes): 75,5 seconds | a = variation of average number of errors as regard as the controls ([2]; 10 mg/kg P.O., 60 minutes): - | E = average number of errors ([2]; 10 mg/kg P.O., 120 minutes): 4,8 | T = average time for crossing over ([2]; 10 mg/kg P.O., 120 minutes): 54,2 seconds | a = variation of average number of errors as regard as the controls ([2]; 10 mg/kg P.O., 120 minutes): - | E = average number of errors ([2]; 10 mg/kg P.O., 180 minutes): 4,7 | T = average time for crossing over ([2]; 10 mg/kg P.O., 180 minutes): 49,0 seconds | a = variation of average number of errors as regard as the controls ([2]; 10 mg/kg P.O., 180 minutes): - | E = average number of errors ([2]; 10 mg/kg P.O., 240 minutes): 2,4 | T = average time for crossing over ([2]; 10 mg/kg P.O., 240 minutes): 25,4 seconds | a = variation of average number of errors as regard as the controls ([2]; 10 mg/kg P.O., 240 minutes): - | b = statistical value (student's test), number of errors ([2]; 10 mg/kg P.O., 240 minutes): 0,0005 | effect on the recovery of learned memory (onset) ([2]; 20 mg/kg): delayed | time after which improvement in performance appeared statistically significant ([2]; 20 mg/kg): 180 mn | a = variation of average number of errors as regard as the controls [2, 5]: + | E = average number of errors [2, 6]: 14,0 | T = average time for crossing over [2, 6]: 150,7 seconds | E = average number of errors ([2]; 20 mg/kg P.O., 60 minutes): 10,4 | T = average time for crossing over ([2]; 20 mg/kg P.O., 60 minutes): 89,8 seconds | a = variation of average number of errors as regard as the controls ([2]; 20 mg/kg P.O., 60 minutes): + | E = average number of errors ([2]; 20 mg/kg P.O., 120 minutes): 5,6 | T = average time for crossing over ([2]; 20 mg/kg P.O., 120 minutes): 53,4 seconds | a = variation of average number of errors as regard as the controls ([2]; 20 mg/kg P.O., 120 minutes): - | E = average number of errors ([2]; 20 mg/kg P.O., 180 minutes): 2,9 | T = average time for crossing over ([2]; 20 mg/kg P.O., 180 minutes): 29,7 seconds | a = variation of average number of errors as regard as the controls ([2]; 20 mg/kg P.O., 180 minutes): - | b = statistical value (student's test), number of errors ([2]; 20 mg/kg P.O., 180 minutes): 0,005 | E = average number of errors ([2]; 20 mg/kg P.O., 240 minutes): 3,0 | T = average time for crossing over ([2]; 20 mg/kg P.O., 240 minutes): 32,8 seconds | a = variation of average number of errors as regard as the controls ([2]; 20 mg/kg P.O., 240 minutes): - | b = statistical value (student's test), number of errors ([2]; 20 mg/kg P.O., 240 minutes): 0,01 | effect on the recovery of learned memory [2]: improving effect

CC[C@]12CCCN3CCc4c(n(c5ccccc45)[C@@](O)(C(=O)OC)C1)[C@@H]32 [Vincamine]
number of mistakes ([2]; 10 mg/kg): did not show any decrease in the number of mistakes | a = variation of average number of errors as regard as the controls [2, 3]: - | E = average number of errors [2, 4]: 10,8 | T = average time for crossing over [2, 4]: 135,6 seconds | E = average number of errors ([2]; 10 mg/kg P.O., 60 minutes): 7,2 | T = average time for crossing over ([2]; 10 mg/kg P.O., 60 minutes): 82,7 seconds | a = variation of average number of errors as regard as the controls ([2]; 10 mg/kg P.O., 60 minutes): - | E = average number of errors ([2]; 10 mg/kg P.O., 120 minutes): 4,6 | T = average time for crossing over ([2]; 10 mg/kg P.O., 120 minutes): 44,1 seconds | a = variation of average number of errors as regard as the controls ([2]; 10 mg/kg P.O., 120 minutes): - | E = average number of errors ([2]; 10 mg/kg P.O., 180 minutes): 5,6 | T = average time for crossing over ([2]; 10 mg/kg P.O., 180 minutes): 52,8 seconds | a = variation of average number of errors as regard as the controls ([2]; 10 mg/kg P.O., 180 minutes): + | E = average number of errors ([2]; 10 mg/kg P.O., 240 minutes): 4,3 | T = average time for crossing over ([2]; 10 mg/kg P.O., 240 minutes): 38,6 seconds | a = variation of average number of errors as regard as the controls ([2]; 10 mg/kg P.O., 240 minutes): - | performances ([2]; 10 mg/kg, after 2 hours): slight improvement | effect on the recovery of learned memory (onset) ([2]; 20 mg/kg): delayed | start of the improving effect after the administration ([2]; 20 mg/kg): 40 min | start of the improving effect after the electroshock ([2]; 20 mg/kg): 60 mn | a = variation of average number of errors as regard as the controls [2, 5]: + | E = average number of errors [2, 6]: 14,3 | T = average time for crossing over [2, 6]: 124,5 seconds | E = average number of errors ([2]; 20 mg/kg P.O., 60 minutes): 7,1 | T = average time for crossing over ([2]; 20 mg/kg P.O., 60 minutes): 58,4 seconds | a = variation of average number of errors as regard as the controls ([2]; 20 mg/kg P.O., 60 minutes): - | E = average number of errors ([2]; 20 mg/kg P.O., 120 minutes): 5,2 | T = average time for crossing over ([2]; 20 mg/kg P.O., 120 minutes): 38,2 seconds | a = variation of average number of errors as regard as the controls ([2]; 20 mg/kg P.O., 120 minutes): - | E = average number of errors ([2]; 20 mg/kg P.O., 180 minutes): 2,5 | T = average time for crossing over ([2]; 20 mg/kg P.O., 180 minutes): 22,1 seconds | a = variation of average number of errors as regard as the controls ([2]; 20 mg/kg P.O., 180 minutes): - | b = statistical value (student's test), number of errors ([2]; 20 mg/kg P.O., 180 minutes): 0,0005 | E = average number of errors ([2]; 20 mg/kg P.O., 240 minutes): 3,2 | T = average time for crossing over ([2]; 20 mg/kg P.O., 240 minutes): 24,2 seconds | a = variation of average number of errors as regard as the controls ([2]; 20 mg/kg P.O., 240 minutes): - | b = statistical value (student's test), number of errors ([2]; 20 mg/kg P.O., 240 minutes): 0,025 | number of mistakes ([2]; 20 mg/kg, 3 and 4 hours after the electroshock): significantly decreased | effect on the recovery of learned memory [2]: improving effect
